# Assay results reported in paper PMC7904550, “Application of grouping and read-across for the evaluation of parabens of different chain lengths with a particular focus on endocrine properties” (Archives of Toxicology, 2021).
# Marks after values point to notes of the source that are not given here.
# Assays:
# mammalian cells = conditions: OECD 473 or 487; ref ECHA dissemination portal; cited from earlier work
# [1] = Acid dissociation constant (pKa); assay type: physicochemical; conditions: OECD TG 112; read-out: pKa
# From the text: Generally, these parabens have very similar physico-chemical properties.
# Wistar rats = assay: Reproductive toxicity screening study (OECD TG 421); assay type: in vivo, rat; conditions: for NOAEL, reproductive toxicity: OECD 421 v 2016 oral gavage (& historical OECD 422 feeding study)
# Protocol: Healthy and specific pathogen-free male and female (non-pregnant and nulliparous) Wistar Crl: WI(Han) rats were obtained from Charles River Laboratories (Germany). The animals were housed in an air-conditioned room (temperature: 22 ± 3 °C; relative humidity: 55 ± 10%; artificial light, light–dark cycle: 12 h–12 h; air change: 10 times/h). Housing was in groups of 5 animals/sex/cage in individually ventilated Type IV polysulphone cages on Altromin saw fibre bedding with free access to both Altromin 1324 maintenance diet for rats and mice and tap water. Upon arrival at BSL BIOSERVICE, the animals underwent an acclimatisation period of at least 5 days, and they were approximately 15–16 weeks old at the onset of the treatment period. […]
# rats = conditions: key studies Gazin et al. 2013, Pouliot 2013; ref SCCS 2013; EMA 2015; cited from earlier work
structure (smiles),measurement,setting,value
"COC(=O)c1ccc(O)cc1 [Methyl paraben, Methyl 4-hydroxybenzoate]",Cytogenicity in mammalian cells classification,mammalian cells,Clastogenic with metabolic activation (OECD 473; 1987) [d]
same,pKa,[1],8.4
"CCCOC(=O)c1ccc(O)cc1 [Propyl paraben, Propyl 4-hydroxybenzoate]","NOAEL, reproductive toxicity",Wistar rats,NOAEL: 1000 (OECD 421; v 2016 & OECD 422 [b]) mg/kg body weight/day
same,"NOAEL, reproductive toxicity",Wistar rats; listed as propyl paraben,1000 mg/kg body weight/day
same,Treatment-related effects in parental animals or pups,Wistar rats; OECD TG 421,no treatment-related effects
same,Accessory sex organs HP,"Wistar rats; P0, F1",n. a. / NAE
same,Anogenital distance,"Wistar rats; P0, F1",n. a. / NAE
same,Coagulating gland weight,"Wistar rats; P0, F1",n. a. / NAE
same,Dystocia,"Wistar rats; P0, F1",n. a. / NAE
same,Epididymis HP,"Wistar rats; P0, F1",n. a. / NAE
same,Epididymis weight,"Wistar rats; P0, F1",n. a. / NAE
same,Fertility,"Wistar rats; P0, F1",n. a. / NAE
same,Foetal development,"Wistar rats; P0, F1",n. a. / NAE
same,Gestation length,"Wistar rats; P0, F1",n. a. / NAE
same,Litter size,"Wistar rats; P0, F1",n. a. / NAE
same,Litter viability,"Wistar rats; P0, F1",n. a. / NAE
same,Nipple development,"Wistar rats; P0, F1",n. a. / NAE
same,"No. of implantations, corpora lutea","Wistar rats; P0, F1",n. a. / NAE
same,No. of live births,"Wistar rats; P0, F1",n. a. / NAE
same,Oestrus cyclicity,"Wistar rats; P0, F1",n. a. / NAE
same,Ovary HP,"Wistar rats; P0, F1",n. a. / NAE
same,Postimplantation loss,"Wistar rats; P0, F1",n. a. / NAE
same,Pre-implantation loss,"Wistar rats; P0, F1",n. a. / NAE
same,"Presence of anomalies (external, visceral, skeletal)","Wistar rats; P0, F1",n. a. / NAE
same,Prostate HP,"Wistar rats; P0, F1",n. a. / NAE
same,Prostate weight,"Wistar rats; P0, F1",n. a. / NAE
same,Reproduction,"Wistar rats; P0, F1",n. a. / NAE
same,Seminal vesicles weight,"Wistar rats; P0, F1",n. a. / NAE
same,Testis HP,"Wistar rats; P0, F1",n. a. / NAE
same,Testis weight,"Wistar rats; P0, F1",n. a. / NAE
same,Thyroid stimulating hormone level,"Wistar rats; P0, F1",n. a. / NAE
same,Time to mating,"Wistar rats; P0, F1",n. a. / NAE
same,Triiodothyronine / thyroxine level,"Wistar rats; P0, F1",n. a. / NAE
same,Vaginal smears,"Wistar rats; P0, F1",n. a. / NAE
same,NOAEL,rats,1000 mg/kg bw/day
